IC50 data for 24 molecules are collected here from patent US12187742B2 (XRAD Therapeutics, Inc., priority 2018, dated 2025).

The target of this test is ATM (Homo sapiens (Human), UniProt Q13315). Briefly: ATM in Cell Western Assay (pKAP1 in etoposide-treated MCF-7 cells). The class given is cell-based. The method in brief: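 Cells received compounds in a 10-dose, 3-fold series from a 1 μM final top concentration, then 100 μM etoposide, for 1 hr at 37° C. They were then fixed with paraformaldehyde and permeabilized with 0.1% Triton X-100. After immunostaining, plates were scanned on an infrared imager.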

Setting [1] is: pKAP1 in etoposide-treated MCF-7 cells.
[2] abbreviates: MCF-7 cells, etoposide 100 μM, 1 hr, pKAP1 readout.

Counter-ions that a name gives are not always drawn. Bounds are passed on as bounds.

Chain of ATM (Q13315 whole entry): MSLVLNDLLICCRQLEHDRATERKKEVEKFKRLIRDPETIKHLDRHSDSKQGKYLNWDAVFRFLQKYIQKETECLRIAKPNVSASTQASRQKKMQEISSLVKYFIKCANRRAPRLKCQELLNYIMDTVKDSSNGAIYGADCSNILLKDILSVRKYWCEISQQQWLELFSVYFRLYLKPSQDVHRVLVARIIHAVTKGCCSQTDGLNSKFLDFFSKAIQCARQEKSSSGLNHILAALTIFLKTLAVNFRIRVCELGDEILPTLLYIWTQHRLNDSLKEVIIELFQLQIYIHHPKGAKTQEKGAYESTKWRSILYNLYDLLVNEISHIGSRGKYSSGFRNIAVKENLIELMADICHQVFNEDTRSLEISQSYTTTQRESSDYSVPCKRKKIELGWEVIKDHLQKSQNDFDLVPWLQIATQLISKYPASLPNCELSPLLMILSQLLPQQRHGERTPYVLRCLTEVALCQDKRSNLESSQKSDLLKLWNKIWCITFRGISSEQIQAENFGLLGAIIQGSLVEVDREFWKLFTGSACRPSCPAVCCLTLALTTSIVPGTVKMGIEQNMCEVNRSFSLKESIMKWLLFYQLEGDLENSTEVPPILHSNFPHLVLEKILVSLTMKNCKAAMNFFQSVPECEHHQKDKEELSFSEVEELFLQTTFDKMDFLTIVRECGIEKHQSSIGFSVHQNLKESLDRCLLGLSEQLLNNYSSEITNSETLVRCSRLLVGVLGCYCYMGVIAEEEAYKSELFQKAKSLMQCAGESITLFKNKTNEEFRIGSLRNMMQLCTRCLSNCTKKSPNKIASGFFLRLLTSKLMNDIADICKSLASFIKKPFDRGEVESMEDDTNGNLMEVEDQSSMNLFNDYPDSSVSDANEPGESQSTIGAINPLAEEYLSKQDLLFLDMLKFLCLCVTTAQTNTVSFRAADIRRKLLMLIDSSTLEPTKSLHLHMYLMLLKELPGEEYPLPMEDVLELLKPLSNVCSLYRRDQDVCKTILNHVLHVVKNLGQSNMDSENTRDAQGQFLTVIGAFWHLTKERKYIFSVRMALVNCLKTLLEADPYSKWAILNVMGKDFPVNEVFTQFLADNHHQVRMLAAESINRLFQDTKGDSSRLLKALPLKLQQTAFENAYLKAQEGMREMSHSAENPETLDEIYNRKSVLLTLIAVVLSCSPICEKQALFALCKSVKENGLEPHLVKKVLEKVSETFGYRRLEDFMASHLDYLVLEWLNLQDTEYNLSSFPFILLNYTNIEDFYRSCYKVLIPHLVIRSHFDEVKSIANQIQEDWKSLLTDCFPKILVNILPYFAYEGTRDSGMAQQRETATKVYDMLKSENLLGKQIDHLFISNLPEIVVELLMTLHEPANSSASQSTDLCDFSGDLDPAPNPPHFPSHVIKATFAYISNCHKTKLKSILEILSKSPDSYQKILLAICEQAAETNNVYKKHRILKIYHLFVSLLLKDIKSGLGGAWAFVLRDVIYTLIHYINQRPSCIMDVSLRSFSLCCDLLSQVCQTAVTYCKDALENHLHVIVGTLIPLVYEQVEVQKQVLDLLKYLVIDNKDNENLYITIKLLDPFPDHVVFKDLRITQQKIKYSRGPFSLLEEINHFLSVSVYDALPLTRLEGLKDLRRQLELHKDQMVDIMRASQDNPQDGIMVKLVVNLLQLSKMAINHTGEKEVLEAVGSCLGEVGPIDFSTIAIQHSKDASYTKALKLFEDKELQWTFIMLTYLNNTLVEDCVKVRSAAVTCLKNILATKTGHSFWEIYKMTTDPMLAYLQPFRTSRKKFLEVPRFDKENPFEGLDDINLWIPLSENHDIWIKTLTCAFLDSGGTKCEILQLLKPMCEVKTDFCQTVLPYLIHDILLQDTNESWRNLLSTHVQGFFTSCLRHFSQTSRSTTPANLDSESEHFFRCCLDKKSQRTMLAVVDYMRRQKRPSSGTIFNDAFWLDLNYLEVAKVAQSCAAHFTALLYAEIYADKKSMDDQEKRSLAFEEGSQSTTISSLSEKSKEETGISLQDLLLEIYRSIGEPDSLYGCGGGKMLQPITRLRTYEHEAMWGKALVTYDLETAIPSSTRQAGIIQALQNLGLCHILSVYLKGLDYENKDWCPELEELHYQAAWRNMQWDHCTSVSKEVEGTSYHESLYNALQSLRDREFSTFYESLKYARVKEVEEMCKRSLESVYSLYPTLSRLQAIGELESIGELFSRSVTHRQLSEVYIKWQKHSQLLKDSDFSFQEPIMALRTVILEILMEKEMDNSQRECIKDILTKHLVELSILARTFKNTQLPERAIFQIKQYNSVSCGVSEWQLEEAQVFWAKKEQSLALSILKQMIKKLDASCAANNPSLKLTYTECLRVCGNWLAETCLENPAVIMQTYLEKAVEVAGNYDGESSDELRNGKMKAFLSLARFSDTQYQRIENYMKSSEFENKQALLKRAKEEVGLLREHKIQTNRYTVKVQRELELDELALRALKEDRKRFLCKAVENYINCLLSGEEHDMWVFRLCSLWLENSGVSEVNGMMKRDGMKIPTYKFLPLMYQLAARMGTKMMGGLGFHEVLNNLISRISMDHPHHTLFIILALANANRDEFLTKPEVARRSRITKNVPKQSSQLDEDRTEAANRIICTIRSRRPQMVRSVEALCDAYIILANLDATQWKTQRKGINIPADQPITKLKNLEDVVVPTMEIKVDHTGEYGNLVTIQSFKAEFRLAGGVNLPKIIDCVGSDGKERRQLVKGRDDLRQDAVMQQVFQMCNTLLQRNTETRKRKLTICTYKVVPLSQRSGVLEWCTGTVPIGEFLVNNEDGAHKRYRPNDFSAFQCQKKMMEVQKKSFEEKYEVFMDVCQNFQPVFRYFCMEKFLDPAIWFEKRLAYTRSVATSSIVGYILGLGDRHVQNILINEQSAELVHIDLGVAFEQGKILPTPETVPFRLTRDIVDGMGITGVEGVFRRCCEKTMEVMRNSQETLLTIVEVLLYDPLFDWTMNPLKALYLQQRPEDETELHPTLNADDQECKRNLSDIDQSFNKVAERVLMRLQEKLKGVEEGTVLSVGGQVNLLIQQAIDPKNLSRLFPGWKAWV

The IC50 is the midpoint of a concentration-inhibition curve. Lower therefore signals greater potency in that assay. In turn, `CN(C)CCN(C)c1ncc(-c2cc3c4c(cnc3cc2F)N(C)C(=O)C42CCC2)cc1NS(C)(=O)=O` [Example 363, N-(2-((2-(Dimethylamino)ethyl)(methyl)amino)-5-(7′-fluoro-3′-methyl-2′-oxo-2′,3′-dihydrospiro[cyclobutane-1,1′-pyrrolo[2,3-c]quinolin]-8′-yl)pyridin-3-yl)methanesulfonamide hydrochloride] showed a half-maximal inhibitory concentration (IC50) under setting [1] of over 0.1 µM. Consider `CN1C(=O)C2(CC2)c2c1cnc1ccc(-c3ccc4[nH]c(=O)ccc4c3)cc21` [Example 40], for which the IC50 under setting [2] was over 0.1 µM. As for `CN1C(=O)C2(CCC2)c2c1cnc1cc(F)c(-c3cnc(N4CC(CN5CCOCC5)C4)c(NS(C)(=O)=O)c3)cc21` [Example 344, N-(5-(7′-Fluoro-3′-methyl-2′-oxo-2′,3′-dihydrospiro[cyclobutane-1,1′-pyrrolo[2,3-c]quinolin]-8′-yl)-2-(3-(morpholinomethyl)azetidin-1-yl)pyridin-3-yl)methanesulfonamideformate], under setting [1], the IC50 was over 0.1 µM. Same read-out and setting: for `CC(C)NCCOc1ncc(-c2cc3c(cc2F)ncc2c3[C@]3(C[C@@H](c4ccc(=O)[nH]c4)C3)C(=O)N2C)cc1NS(C)(=O)=O` [Example 443, trans-N-(5-(7′-Fluoro-3′-methyl-2′-oxo-3-(6-oxo-1,6-dihydropyridin-3-yl)-2′,3′-dihydrospiro[cyclobutane-1,1′-pyrrolo[2,3-c]quinolin]-8′-yl)-2-(2-(isopropylamino)ethoxy)pyridin-3-yl)methanesulfonamide] the value was over 0.1 µM; for `CC(=O)N1CC2(C1)C(=O)N(C)c1cnc3cc(F)c(-c4cnc(OCCNC(C)C)c(NS(C)(=O)=O)c4)cc3c12` [Example 511, N-(5-(1-Acetyl-7′-fluoro-3′-methyl-2′-oxo-2′,3′-dihydrospiro[azetidine-3,1′-pyrrolo[2,3-c]quinolin]-8′-yl)-2-(2-(isopropylamino)ethoxy)pyridin-3-yl)methanesulfonamide], over 0.1 µM. `CN(C)CCCOc1ncc(-c2ccc3ncc4c(c3c2)C2(CC2)C(=O)N4C)cc1NS(=O)(=O)c1ccc(Cl)nc1` [Example 105, 6-Chloro-N-(2-(3-(dimethylamino)propoxy)-5-(3′-methyl-2′-oxo-2′,3′-dihydrospiro[cyclopropane-1,1′-pyrrolo[2,3-c]quinolin]-8′-yl)pyridin-3-yl)pyridine-3-sulfonamide] gave a 50% inhibitory concentration (IC50) under setting [2] of 0.001 to 0.1 µM. Still for that read-out and setting: for `CCN1C(=O)C2(CCC2)c2c1cnc1ccc(-c3cnc(N4CC(N(C)C)C4)c(NS(C)(=O)=O)c3)cc21` [Example 336, N-(2-(3-(Dimethylamino)azetidin-1-yl)-5-(3′-ethyl-2′-oxo-2′,3′-dihydrospiro [cyclobutane-1,1′-pyrrolo[2,3-c]quinolin]-8′-yl)pyridin-3-yl) methanesulfonamide] the value was 0.001 to 0.1 µM. On the same count and under the same terms, for `CN(C)CCCOc1ncc(-c2ccc3ncc4c(c3c2)C2(CCC2)C(=O)N4C)cc1S(N)(=O)=O` [Example 255, 2-(3-(Dimethylamino)propoxy)-5-(3′-methyl-2′-oxo-2′,3′-dihydrospiro[cyclobutane-1,1′-pyrrolo[2,3-c]quinolin]-8′-yl)pyridine-3-sulfonamide] the value was 0.001 to 0.1 µM; for `CN1C(=O)C2(CCC2)c2c1cnc1ccc(-c3cnc(OCCCN4CCNCC4)c(NS(C)(=O)=O)c3)cc21` [Example 300, N-(5-(3′-Methyl-2′-oxo-2′,3′-dihydrospiro[cyclobutane-1,1′-pyrrole[2,3-c]quinolin]-8′-yl)-2-(3-(piperazin-1-yl)propoxy)pyridin-3-yl) methanesulfonamide], 0.001 to 0.1 µM. Take `CN1C(=O)C2(CCC2)c2c1cnc1ccc(-c3cnc(OCCCO)c(NS(C)(=O)=O)c3)cc21` [Example 254, N-(2-(3-Hydroxypropoxy)-5-(3′-methyl-2′-oxo-2′,3′-dihydrospiro[cyclobutane-1,1′-pyrrolo[2,3-c]quinolin]-8′-yl)pyridin-3-yl)methanesulfonamide]: under setting [2], the half-inhibitory concentration (IC50) was over 0.1 µM.

Take `CN1C(=O)C(C)(c2ccncc2)c2c1cnc1ccc(-c3cnc(Cl)c(NS(=O)(=O)c4ccccc4)c3)cc21` (stereo not drawn) [Example 23, N-(2-Chloro-5-(1,3-dimethyl-2-oxo-1-(pyridin-4-yl)-2′,3′-dihydro-1H-pyrrolo[2,3-c]quinolin-8-yl)pyridin-3-yl)benzenesulfonamide]: the half-inhibitory concentration (IC50) under setting [2] was over 0.1 µM. `CC(C)NCCOc1ncc(-c2cc3c(cc2F)ncc2c3[C@]3(C[C@H](N4CCOCC4)C3)C(=O)N2C)cc1NS(C)(=O)=O` [Example 471, cis-N-(5-(7′-Fluoro-3′-methyl-3-morpholino-2-oxo-2′,3′-dihydrospiro[cyclobutane-1,1′-pyrrolo[2,3-c]quinolin]-8′-yl)-2-(2-(isopropylamino)ethoxy)pyridin-3-yl)methanesulfonamide] gave a concentration for half-maximal inhibition (IC50) under setting [1] of 0.001 to 0.1 µM.

Turning to `CC(C)NCCOc1ncc(-c2cc3c(cc2F)ncc2c3[C@]3(C[C@@H](N4CCCC4)C3)C(=O)N2C)cc1NS(C)(=O)=O` [Example 468, trans-N-(5-(7′-Fluoro-3′-methyl-2′-oxo-3-(pyrrolidin-1-yl)-2′,3′-dihydrospiro[cyclobutane-1,1′-pyrrolo[2,3-c]quinolin]-8′-yl)-2-(2-(isopropylamino)ethoxy)pyridin-3-yl)methanesulfonamide], the IC50 under setting [1] lay within 0.001 to 0.1 µM. Same read-out and setting: for `CC(C)NCCOc1ncc(-c2ccc3ncc4c(c3n2)C2(CCC2)C(=O)N4C)cc1NS(C)(=O)=O` [Example 561, N-(5-[7-Methyl-8-oxo-7,8-dihydrospiro[cyclobutane-1,9-pyrrolo[2,3-c]1,5-naphthyridin]-2-yl]-2-[2-[(propan-2-yl)amino]ethoxy]pyridin-3-yl) methanesulfonamide] the value was 0.001 to 0.1 µM; for `CC(C)NCCOc1ncc(-c2cc3c(cc2F)ncc2c3[C@]3(C[C@@H](CN(C)C)C3)C(=O)N2C)cc1NS(C)(=O)=O` [Example 453, trans-N-(5-(3-((Dimethylamino)methyl)-7′-fluoro-3′-methyl-2′-oxo-2′,3′-dihydrospiro[cyclobutane-1,1′-pyrrolo[2,3-c]quinolin]-8′-yl)-2-(2-(isopropylamino)ethoxy)pyridin-3-yl)methanesulfonamide], 0.001 to 0.1 µM. `CC(C)Oc1cc(-c2ccc3ncc4c(c3c2)C2(CC2)C(=O)N4C)cnc1OCCCN(C)C` [Example 38, 8′-(6-(3-(Dimethylamino)propoxy)-5-isopropoxypyridin-3-yl)-3′-methylspiro[cyclopropane-1,1′-pyrrolo[2,3-c]quinolin]-2′(3′-H)-one] showed a concentration for half-maximal inhibition (IC50) under setting [2] of over 0.1 µM. The molecule `CC(C)NCCOc1ncc(-c2cc3c4c(cnc3cc2F)N(C)C(=O)C42CC(F)C2)cc1NS(C)(=O)=O` (stereo not drawn) [Example 560, cis-N-(5-(3,7′-Difluoro-3′-methyl-2′-oxo-2′,3′-dihydrospiro[cyclobutane-1,1′-pyrrolo[2,3-c]quinolin]-8′-yl)-2-(2-(isopropylamino)ethoxy)pyridin-3-yl)methanesulfonamide] gave a half-inhibitory concentration (IC50) under setting [1] of 0.001 to 0.1 µM. In turn, `CN(C)CCCOc1ncc(-c2ccc3ncc4c(c3c2)C2(CC2)C(=O)N4C)cc1Cl` [Example 55, 8′-(5-Chloro-6-(3-(dimethylamino)propoxy)pyridin-3-yl)-3 methylspiro[cyclopropane-1,1′-pyrrolo[2,3-c]quinolin]-2′(3′-H)-one] yielded an IC50 under setting [2] of over 0.1 µM. Consider `COC(=O)c1cc(-c2ccc3ncc4c(c3c2)C2(CCC2)C(=O)N4C)cc(NS(C)(=O)=O)c1OCCCN(C)C` [Example 559, Methyl 2-(3-(dimethylamino)propoxy)-5-(3′-methyl-2′-oxo-2′,3′-dihydrospiro[cyclobutane-1,1′-pyrrolo[2,3-c]quinolin]-8′-yl)-3-(methylsulfonamido)benzoate], for which, under setting [1], the IC50 was over 0.1 µM. The molecule `CN1C(=O)C2(CCC2)c2c1cnc1ccc(-c3cnc(N4CC5CC(C4)N5C)c(NS(C)(=O)=O)c3)cc21` [Example 361, N-(5-(3′-Methyl-2′-oxo-2′,3′-dihydrospiro[cyclobutane-1,1′-pyrrolo[2,3-c]quinolin]-8′-yl)-2-(6-methyl-3,6-diazabicyclo[3.1.1]heptan-3-yl)pyridin-3-yl)methanesulfonamide formate] gave a concentration for half-maximal inhibition (IC50) under setting [1] of over 0.1 µM. Turning to `CC(C)NCCOc1ncc(-c2cc3c4c(cnc3cc2F)N(C)C(=O)C42CN(c3nnnn3C)C2)cc1NS(C)(=O)=O` [Example 553, N-(5-(7′-Fluoro-3′-methyl-1-(1-methyl-1H-tetrazol-5-yl)-2′-oxo-2′,3′-dihydrospiro[azetidine-3,1′-pyrrolo[2,3-c]quinolin]-8′-yl)-2-(2-(isopropylamino)ethoxy)pyridin-3-yl)methanesulfonamide], under setting [1], the half-inhibitory concentration (IC50) is over 0.1 µM. On the same count and under the same terms, with `CC(C)NCCOc1ncc(-c2cc3c4c(cnc3cc2F)N(C)C(=O)C42CN(c3cccc(C(F)(F)F)c3)C2)cc1NS(C)(=O)=O` [Example 537, N-(5-(7′-Fluoro-3′-methyl-2′-oxo-1-(3-(trifluoromethyl)phenyl)-2′,3′-dihydrospiro[azetidine-3,1′-pyrrolo[2,3-c]quinolin]-8′-yl)-2-(2-(isopropylamino)ethoxy)pyridin-3-yl)methanesulfonamide] the figure was 0.001 to 0.1 µM; with `COc1cccc(N2CC3(C2)C(=O)N(C)c2cnc4cc(F)c(-c5cnc(OCCNC(C)C)c(NS(C)(=O)=O)c5)cc4c23)c1` [Example 534, N-(5-(7′-Fluoro-1-(3-methoxyphenyl)-3′-methyl-2′-oxo-2′,3′-dihydrospiro [azetidine-3,1′-pyrrolo[2,3-c]quinolin]-8′-yl)-2-(2-(isopropylamino)ethoxy)pyridin-3-yl)methanesulfonamide], 0.001 to 0.1 µM.

Turning to `CC(C)NCCOc1ncc(-c2cc3c(cc2F)ncc2c3[C@]3(C[C@@H](COC(C)C)C3)C(=O)N2C)cc1NS(C)(=O)=O` [Example 411, trans-N-{5-(7′-Fluoro-3-(isopropoxymethyl)-3′-methyl-2′-oxo-2′,3′-dihydrospiro[cyclobutane-1,1′-pyrrolo[2,3-c]quinolin]-8′-yl)-2-(2-(isopropylamino)ethoxy)pyridin-3-yl)methanesulfonamide], the IC50 under setting [1] was 0.001 to 0.1 µM.
